Patent US20150258197A1, “EUTECTIC ISOMETHEPTENE MUCATE” (TONIX PHARMA HOLDINGS LIMITED, priority 2014, published 2015)

Columns and labels:
[1] = tested on: Spontaneous trigeminal allodynia (STA) rats; assay: Tactile sensory testing with von Frey monofilaments in STA rats; format: in vivo, rat; settings: injected, versus (S)-isometheptene mucate treated or control rats
Source text: Pain, headaches, and migraines have been modeled in animals such as mice and rats. For example, Oshinsky et al. (Oshinsky, M. L., et al., Spontaneous Trigeminal Allodynia in Rats: A Model of Primary Headache, 2012, 52: 1336-1349) describes spontaneous trigeminal allodynia (STA) rats with the inherited trait of spontaneously changing trigeminal von Frey thresholds. These rats are a model of spontaneous headache and can be used as a model of primary headache. Through a series of tactile sensory tests, the periorbital, hind-paw, and jaw-pressure thresholds for STA rats are determined by applying von Frey monofilaments. […] Analgesic activity of the compositions described herein can be evaluated by determining trigeminal von Frey thresholds in STA rats. […]
STA rats and litter mates without the trait were injected with compounds selected from (R)-isometheptene mucate and (5)-isometheptene mucate on days when their thresholds in spontaneous allodynia rats were 4 g or below for STA rats. […] Tactile sensory thresholds were recorded prior to and following injections at 0.5 hours, 1.5 hours, 2.5 hours, 3.5 hours, and 24 hours. […]
Periorbital, hind-paw, and jaw-pressure thresholds were determined by applying von Frey monofilaments (Stoelting Co., Wood Dale, Ill., USA). […] Left and right threshold data were recorded separately. […]

[2] = tested on: mice; assay: Hot Plate Test; format: in vivo; settings: mouse, hot plate 54° C., 10, 30 and 100 mg/kg p.o. 15 minutes before the test
Source text: Common mouse models for pain include the Formalin Test (Wheeler-Aceto, et al., Psychopharmacology, 104, 35-44, 1991), the Hot Plate Test (Eddy and Leimbach, J. Pharmacol. Exp. Ther., 107, 385-393, 1953), and the Tail-flick Test (D'Amour and Smith, J. Pharmacol. Exp. Ther., 1, 74-79, 1941). These methods detect analgesic activity of compositions of interest. In the Formalin Test, mice are given an intraplantar injection of 5% formalin into one posterior hindpaw to induce paw licking. Test compositions are given to the mice before treatment with formalin and the mice are evaluated and compared to a control group. In the Hot Plate Test, mice are placed onto a hot metal plate maintained at 54° C. and the latency to the first foot-lick is measured. As with the Formalin test, compositions of interest are given to the mice before the test and the mice are evaluated and compared to a control group. In the Tail-flick Test, a mouse's tail is heated by means of a thermal light source, and the latency before the animal withdraws its tail is measured. […]
Mice were placed onto a hot metal plate maintained at 54° C. surrounded by a Plexiglas cylinder (height: 13 cm; diameter: 19 cm). The latency to the first foot-lick was measured (maximum: 30 seconds). […]
Data with the test substance were analyzed by comparing treated groups with vehicle control using ANOVA followed by post-hoc Dunnett's tests. […]

For CN[C@H](C)CCC=C(C)C [(R)-isometheptene mucate], the “Tactile sensory (von Frey) threshold values” [1] was “dramatic increase in threshold values” and the “Foot-licking latency compared to vehicle” value [2] was “longer foot-licking latency times”.
